Paper PMC6418785, “Presenting Precision Glycomacromolecules on Gold Nanoparticles for Increased Lectin Binding” (Polymers, 2017)

Assays:
Concanavalin A (Con A) [1] = biological target: T1, Concanavalin A (Con A) (Canavalia ensiformis, UniProt P02866); assay: SPR inhibition competition assay, Con A binding to mannosylated sensor chip; settings: for IC50: 100 nM Con A, LBB; for RIP per Carbohydrate Ligand: corrected for carbohydrate number per nanoparticle; for RIP per Glycomacromolecular Ligand: corrected for glycomacromolecule number per nanoparticle; for RIP: relative inhibitory potency based on IC50 of αMeMan on same chip (IP ≡ 1)
T1 construct: purchased LKT Laboratories (Biomol, Hamburg, Germany)
Description: As sensor chip a SA (streptavidin) chip from GE Healthcare Life Sciences was used. The positive (α-D-Mannose-PAA-biotin, flow cell 2) and negative (α-D-Galactose-PAA-biotin, flow cell 1) control for Con A binding were immobilized on the sensor chip surface using the standard biotin streptavidin capture method as adapted from previously established protocols. Therefore, a 4.2 µg/mL solution of both polymers was prepared in HBS-P+ buffer (pH 7.4, GE Healthcare, Uppsala, Sweden). The same buffer was used as running buffer in a flow rate of 10 µL/min. For immobilization, the immobilization wizard was used with a specified contact time of 420 s. Sodium chloride, sodium hydroxide and isopropanol solutions were prepared as specified by the manufacturer. […] After approximately 500 measurement cycles, a new SA (streptavidin) chip was used for further measurements. For immobilization, the same procedure was used as described above.
SPR inhibition competition studies were performed using the wizard template kinetics/affinity with contact times of 105 s and dissociation times of 180 s. Before the run, the system was primed with LBB (pH 7.40 ± 0.01, 10 mM Hepes, 50 mM NaCl, 1 mM CaCl2, 1 mM MnCl2) which was used as running buffer and two startup cycles were performed. The experiment was performed in multi cycle mode. For all experiments a 1 mg/mL stock solution of Con A was prepared in LBB and was shaken for 1 h. Then it was filtrated (Acrodisc® 32 mm syringe filter with a 0.1 µm Supor® membrane from Pall Corporation, Newquay, UK) and the concentration was determined spectrophotometrically. The stock solution was diluted to give a 200 nM solution of Con A. Glyco-AuNP solutions were concentrated by centrifugation (Allegra^TM 25R Centrifuge, Beckman Coulter, Brea, CA, USA, 12 h, 4500 rcf) and were resuspended in LBB to give a 20 nM stock solution. The concentration was verified by UV measurement. This glyco-AuNP stock solution was then used to prepare the dilution series in LBB. […] For N-ethylmaleimide capped glycomacromolecule 1a a dilution series with concentrations of 0, 1, 10, 20, 50, 100, 200, 500, 1000 µM and 3a a dilution series with concentrations of 0, 2, 20, 100, 200, 500, 1000, 1500, 2000 nM was prepared. For αMeMan a dilution series with concentrations of 0, 10, 100, 500, 1000, 1500, 2000, 5000 µM was prepared. As negative control, four representative concentrations of 0, 10, 1500 and 5000 µM were prepared for D-(+)-galactose.
For the experiment Con A and sample solutions were mixed in a 1:1 ratio to give half of the prepared concentrations. Each mixture was injected over both flow cells whereas the binding signal on flow cell 1 was subtracted from the response on flow cell 2. As regeneration procedure three consecutive injections of a 0.8 M solution of αMeMan in LBB with a contact time of 30 s was used. The relative response value at the beginning of the dissociation phase (20 s after the end of sample injection) for the 100 nM Con A solution with zero sample concentration was set to 100% binding. The relative response values of the Con A solutions incubated with the respective sample in serial dilutions were referred to Con A and calculated for relative binding in %. IC50 values were calculated as concentration of the sample that result in 50% inhibition of Con A binding to the mannosylated sensor chip surface. RIP (relative inhibitory potency) values are based on the IC50 value for αMeMan (IP (inhibitory potency) ≡ 1). All glyco-AuNPs, glycomacromolecules and αMeMan have been tested in three independent experiments (triplicate determination per experiment for αMeMan and glyco-AuNPs, dublicate determination per experiment for glycomacromolecules 1a and 3a).

Concanavalin A (Con A) [2] = biological target: T1, Concanavalin A (Con A); assay: Kinetic study of aggregation behavior with Con A by DLS and UV-Vis spectroscopy; assay type: binding; settings: αMeMan 60 mM added to wells or DLS cuvettes
Description: For the kinetic study of aggregation behavior with Con A performed by DLS and UV-Vis spectroscopy, a similar procedure as described by the group of Gibson was performed [41, 42].
For the kinetic studies using absorbance spectroscopy (Thermo Scientific, Vantaa, Finland), the stock solutions were mixed in wells of a 96-well microtiter-plate (100 µL of each solution per well). The absorbance at 400 and 700 nm was measured every minute for 30 min.
For the kinetic studies using DLS, the stock solutions were filtrated twice (Roth, Rotilabo® syringe filter, Karlsruhe, Germany, PTFE, 5.0 µm) and were pre-tempered to 20 °C. Then 750 µL of each stock solution were filled into the culture tubes and mixed. DLS measurements were performed at 20 °C and at a scattering angle of 90°. Every minute an intensity-time autocorrelation function was recorded with an acquisition time of 30 s during a period of 30 min.

[3] = SA sensor chip used for 1a and 3a (footnote 1)

Q: How did the “inhibition of Con A binding” value (Concanavalin A (Con A) [1]; negative control, four representative concentrations) turn out when `OC[C@H]1OC(O)[C@H](O)[C@@H](O)[C@H]1O` (stereo partly drawn) [D-(+)-galactose] was run?
A: no inhibition

Q: With `CO[C@H]1O[C@H](CO)[C@@H](O)[C@H](O)[C@@H]1O` [αMeMan, methyl-α-D-mannopyranoside] as the compound, how does the IC50 (Concanavalin A (Con A) [1]; [3]) read?
A: 325 µM

Q: And the IC50 (Concanavalin A (Con A) [1]; SA sensor chip with αMeMan IC50 (5.17 ± 0.84) × 10^5 nM)?
A: 517 µM

Q: What about the “RIP per Carbohydrate Ligand” value (Concanavalin A (Con A) [1]) of the same compound?
A: 1

Q: And the “RIP per Glycomacromolecular Ligand” value (Concanavalin A (Con A) [1])?
A: 1

Q: What about the RIP (Concanavalin A (Con A) [1]) of the same compound?
A: 1

Q: What about the “redispersion of Con A induced glyco-AuNP aggregates” value (Concanavalin A (Con A) [2]) of the same compound?
A: redispersion of the aggregates

Q: Which results are given for “Man(2)-5-Gly(1)-EDS(3,4)-Cys(5)-N-ethylmaleimide [glycomacromolecule 1a]”?
A: IC50 (Concanavalin A (Con A) [1]; [3]): 70 µM; RIP per Carbohydrate Ligand (Concanavalin A (Con A) [1]): 5; RIP per Glycomacromolecular Ligand (Concanavalin A (Con A) [1]): 5; RIP (Concanavalin A (Con A) [1]): 5

Q: “Man(2,4,6,8,10)-11-Gly(1)-EDS(3,5,7,9)-Cys(11)-N-ethylmaleimide [glycomacromolecule 3a]” was tested. Which “RIP per Carbohydrate Ligand” value (Concanavalin A (Con A) [1]) did it give?
A: 419

Q: And the “RIP per Glycomacromolecular Ligand” value (Concanavalin A (Con A) [1])?
A: 2096

Q: What about the RIP (Concanavalin A (Con A) [1]) of the same compound?
A: 2096
